The source of these data is a melting point compilation (Tetko et al.).

On to `CC1=NNC(=O)C1=NNc1ccc(Cl)cc1`, for which the melting point (usually the temperature, or range, at which the solid turns liquid) came to 215 °C.
Under `CC(C)(C)c1ccc(C(N)=S)cc1` stands 145 to 148 °C; under `CN(N=O)c1ccc(N=O)cc1`, 101 °C.
To `Cc1cccc(C(=O)C(=O)c2ccccc2)n1` belongs 76.8 °C; to `O=C(O)c1ccc(CSc2ccc(C(F)(F)F)cn2)o1`, 176 to 178 °C.
Under `NCCCC(=O)O` stands 197 to 204 °C; under `CN(C)C(=S)N(C)C`, 79.3 °C.
Take `CC(C)CC=CC(C(=O)O)C1=CCC2(C)C(CCC3C4CCC(O)C4(C)CCC32)C1` (stereo unspecified): the melting point was found to be 200 °C.
To `N#C/C(=N\Nc1c(Br)cc(Br)cc1Br)c1nc2ccccc2[nH]1` belongs 270 °C.
For the compound `CSc1c(C#N)c(N)nc2c(/N=N/c3ccc(F)cc3)c(N)nn12`, the melting point amounted to 228 °C.
To `N[C@@H](c1ccccc1)c1c(O)ccc2ccccc12` belongs 133 to 137 °C.
Under `C1CCCSCC1` stands 0.5 °C; under `COc1ccc(F)c(C#N)c1`, 83 °C; under `N#CC(=O)c1ccccc1`, 32.5 °C.
To `Nc1c(OC2C=CC(N3CCCCCC3=O)=CC2)cc(O)c2c1C(=O)c1ccccc1C2=O` (stereo unspecified) belongs 164 °C; to `Clc1ccc(-c2c(Cl)cc(Cl)cc2Cl)cc1`, 65 °C; to `COC(=O)c1cnc(SCC(=O)NC(=O)Nc2ccc(Cl)cc2)n1C`, 208 to 209 °C.
Regarding `CCCCCCCCOC(=O)CCCCC(=O)OCCCCCCCC`, the melting point was -70 °C.
Regarding `CC(=O)c1cc(Cl)sc1Cl`, the melting point amounted to 38 °C.
To `O=[N+]([O-])c1cc(I)cc([N+](=O)[O-])c1` belongs 101 °C; to `Cc1ccccc1NC(=S)NN`, 147 °C.
`O=C(Cl)c1cccc(C(Cl)Cl)c1` displayed a melting point of 57 to 63 °C.
`Cc1ccc2c(c1)C(=O)C2` displayed a melting point of 46 °C.
In the case of `O=Cc1ccc(-n2ccnc2)cc1`, the melting point lay in the range of 142 to 145 °C.
To `CC/C(=N/NC(N)=O)C1=CC2(C)CCC1C2(C)C` (stereo unspecified) belongs 196 to 197 °C; to `COc1cc2c(cc1C)C(=O)C2`, 88 °C; to `Cc1ccc(-c2cccc(C)c2)cc1`, 14.5 °C.
`Cc1oc(-c2ccc(Cl)cc2)cc1C(=O)O` came in with a melting point of 231 to 232 °C.
As for `CCO[Si](C)(C)OCC`, the melting point was -70 °C.
Compound `Cc1ccccc1C(=O)Cc1ccc(C(N)=O)cc1` registered a melting point of 187 to 188 °C.
Under `Cc1ccc(C(c2ccc(C)o2)c2cc([N+](=O)[O-])ccc2O)o1` stands 143 °C.
For `COc1ccc(N=C=S)c([N+](=O)[O-])c1`, the melting point was 111 to 113 °C.
To `COCCCn1c(-c2ccc(C(C)(C)C)cc2)n[nH]c1=S` belongs 116 to 118 °C.
`Clc1ccccc1-c1ccccc1` returned a melting point of 34 °C.
Under `COC(=O)c1cc(Oc2ccc(Cl)cc2Cl)ccc1[N+](=O)[O-]` stands 87 °C.
To `O=C1NC(=S)NC(=O)C1=NNc1ccccc1` belongs 290 °C.
As for `CC(=O)OCC(OC(C)=O)C(OC(C)=O)C(OC(C)=O)C(OC(C)=O)C(OC(C)=O)OC(C)=O` (stereo unspecified), the melting point was determined as 119 °C.
To `Oc1cc(F)cc(F)c1` belongs 53 °C; to `CCCCCCCCCOC(=O)c1ccc(N)cc1`, 69 °C; to `CCOC(=O)c1c(-c2ccccc2)csc1N`, 92 °C.
To `Cc1ccc(C)c(C=Cc2ccc(-c3ccc(C=Cc4cc(C)ccc4C)cc3)cc2)c1` belongs 198 °C; to `CC(=O)OC1CCC2(C)C(C1)CC1(OCCO1)C1C3CCC(=O)C3(C)CCC12` (stereo unspecified), 240 °C.
In the case of `Clc1ccnc2ccccc12`, the melting point turned out to be 34.5 °C.
Consider `CC1(c2ccccc2)CC(C(=NNC(N)=S)c2cc3ccccc3o2)C1` (stereo unspecified), for which the melting point fell in the range of 205 to 207 °C.
To `CC1NC(=O)NC1=O` (stereo unspecified) belongs 151 °C; to `Cn1nc(-c2cc(OCC(=O)O)c(Cl)cc2F)c(Cl)c1OC(F)F`, 126 °C.
As to `CC(=O)Nc1ccc(Br)cc1OC(F)(F)F`, the melting point was found to be 136 °C.
To `OCc1cccc2c1OCCO2` belongs 54 to 55 °C; to `CCCCCCCCCF`, 1 °C.
Under `CCCCCCCCCCCCCCCCI` stands 22 °C.
To `O=C1CCSc2ccc(F)cc21` belongs 94 to 95 °C; to `COC(=O)c1ccc(C(=O)OC)c(I)c1`, 81 to 82 °C; to `CCOC(=O)c1c(NC(=O)CN2CCN(c3ccccc3)CC2)sc2c1CCCC2`, 187 to 188 °C.
`Nc1ccccc1N1CCCCC1`: the melting point was 46 °C.
To `O=S(=O)(Cl)c1ccc(-c2ccno2)s1` belongs 69 to 70 °C; to `O=C(O)c1cccc(S(=O)(=O)Cl)c1`, 135 °C; to `CC(=O)OC1CCC2(C)C(CC(=O)C3C2CCC2(C)C(OC(=O)c4ccccc4)CCC32)C1` (stereo unspecified), 175 °C.
For the compound `Cc1nc(/C(C#N)=C/c2ccco2)sc1/N=N/c1c(Cl)cc(Cl)cc1Cl`, the melting point is 156 °C.
Under `CCOC(=O)C(C#N)=C(N)c1cc2cc(Br)cc(OC)c2oc1=O` stands 274 to 276 °C.
In turn, `O[Si](O)(c1ccccc1)c1ccccc1` came in with a melting point of 202 °C.
Under `C=CCn1c(SC)nc2nc(SC)n(C)c2c1=O` stands 111 to 113 °C; under `CN1CCC23c4c5ccc(O)c4OC2C(=O)CCC3C1C5` (stereo unspecified), 266 °C; under `CC(C)(C#N)Nc1nc(Cl)nc(NC2CC2)n1`, 170 °C.
Compound `COC(=O)c1scc(C#N)c1-n1cccc1` gave a melting point of 87 to 90 °C.
For `NC(=S)C1=Cc2ccccc2OC1`, the melting point fell in the range of 172 to 174 °C.
In turn, `O=Cc1cccc2cccnc12` yielded a melting point of 93 °C.
Compound `CC1=NN(c2ccccc2)C(=O)/C1=N\Nc1ccc(C(=O)O)cc1` displayed a melting point of 313 °C.
Under `O=c1c(C=Cc2nc3ccccc3[nH]2)coc2ccccc12` stands 260 °C; under `COc1ccccc1OP(=O)(Oc1ccccc1OC)Oc1ccccc1OC`, 91 °C.
Compound `Cc1noc(C)c1C(=O)O` registered a melting point of 141 to 142 °C.
`CS(=O)(=O)Nc1ccc(C#N)cc1` gave a melting point of 194 °C.
To `C=C1C(C)CCC2(C)C3=C(C(=O)C4(CC4C)C(O)C3=O)C(O)C(O)C12` (stereo unspecified) belongs 194 °C; to `Cc1ccc2cc3c(cc2n1)CCC(C)N3` (stereo unspecified), 171 °C.
In turn, `COC(=O)Nc1cccc(OC(=O)Nc2cccc(C)c2)c1` came in with a melting point of 143 °C.
Under `CC(C)[C@@H](O)[C@H](N)C(=O)O` stands 225 to 227 °C.
To `CCO[P@](=O)(c1ccc(OC)cc1)N1Cc2ccccc2C[C@@H]1C(=O)NO` belongs 167 °C; to `C/C=C/C#N`, -51.5 °C.
To `CC(=O)c1ccc(NC(=O)c2ccccc2)c(C(=O)c2ccccc2)c1` belongs 177 °C.
`Cc1ccccc1N1CCN(CCc2nnc3n2CCCC3)CC1` registered a melting point of 158 °C.
Under `Fc1cccc(F)c1` stands -59 °C; under `O=C(NCCc1c[nH]cn1)C1=NC=NC1`, 176 °C.
For `O=C(OOC(=O)c1ccccc1)c1ccccc1`, the melting point was found to be 105 °C.
Under `Clc1ccc(C=NNc2ncnc3c2cnn3-c2ccccc2)cc1` stands 280 to 282 °C.
Under `CN1CC(C(=O)O)CC1=O` (stereo unspecified) stands 152 °C.
In turn, `CCN(CC)CCOCc1cc(Br)cc(Br)c1OC` yielded a melting point of under 25 °C.
Under `Nc1nnc(-c2ccc([N+](=O)[O-])o2)s1` stands 280 °C.
Under `O=C(Nc1ccc([N+](=O)[O-])cc1)C(F)(F)C(F)(F)C(F)(F)C(F)(F)C(F)(F)C(F)(F)C(F)(F)C(F)(F)F` stands 119 °C; under `c1cnc2nc[nH]c2c1`, 148 °C.
Under `C[C@H](N)C(=O)O` stands 314 to 316 °C; under `COc1ccccc1C(=O)Oc1ccc(/C=C/C(=O)c2ccccc2)cc1`, 115 °C; under `Nc1ccncc1Br`, 67 to 71 °C.
In turn, `CC(=O)OC1CCC2(C)C(CCC3C2CCC2(C)C3CCC(=O)C2(C)OC(C)=O)C1` (stereo unspecified) gave a melting point of 195 to 207 °C.
In the case of `Cn1c(/C(C#N)=N/Nc2cccc(Cl)c2)nc2ccccc21`, the melting point came out at 165 °C.
Under `COc1ccc(NCC(=O)Nc2ccc(OC)cc2)cc1` stands 132 °C; under `Nc1cc(C(F)(F)F)cc(C(F)(F)F)c1Br`, 35 °C.
With `C1=CCC=C1`, the melting point is -85 °C.
For `COc1ccccc1C1(C)CCc2oc3ccc(Cl)cc3c2-c2oc(C)cc21` (stereo unspecified), the melting point lay in the range of 197 to 198 °C.
To `CCCC(=O)c1cc2cc(Br)cc(Br)c2oc1=O` belongs 200 to 202 °C; to `CC1(C)C=[N+]([O-])C(C)(C)C1`, 53 to 59 °C.
In the case of `CN(C)c1ccc(N=Nc2ccccc2)cc1`, the melting point worked out at 117 °C.
Under `CC=C(C)C(=O)O` stands 64.5 °C; under `CCCOC(=O)Cn1cc(I)c(=O)c(I)c1`, 186 °C.
Under `CCCCC(=O)NN` stands 60 °C; under `N#C/C(=N\Nc1cc(Cl)c(Cl)cc1Cl)c1nc2ccccc2s1`, 214 °C; under `Oc1cc(O)nc(S)n1`, 240 to 255 °C.
Under `CC(=O)Nc1ccc(/N=N/c2ccc(N(Nc3ccc(NC(C)=O)cc3)C(C)=O)cc2)cc1` stands 218 °C.
The compound `Brc1c[nH]cn1` yielded a melting point of 126 to 132 °C.
Under `CCCCCC(=O)OCCCC` stands -64.3 °C; under `CC12C(=O)OC(=O)C1(C)C1CCC2O1` (stereo unspecified), 218 °C.
In turn, `CC(=O)OC(OC(C)=O)c1ccco1` displayed a melting point of 53.3 °C.
To `CCOC(=O)c1cccc(-c2nccs2)c1` belongs 50 to 52 °C.
